# Columns and labels:
# [1] = system: E. coli-derived DNA polymerase activity; assay: Bead lysis-coupled DPE-PCR, ddCTP termination of microbial DNA polymerase (E. coli); assay type: biochemical, Escherichia coli; settings: reaction mix with 50 μM ddCTP instead of dCTP; crude bead mill lysate
# Experimental: The qPCR reaction master mix was prepared using the following components: LightCycler 480 Master Mix (Roche cat #04707494001), 333 nM of each primer, 166 nM Target probe (FAM), 166 nM internal control probe (TxRed), and 1.2 U of UDG (Bioline cat #BIO-20744). As a tool to monitor PCR inhibition, each qPCR reaction also included 40 copies of competitive internal control DNA. For each qPCR reaction, 3 μL of DNA polymerase reaction were added to 27 μL of master mix and a two-step qPCR was run on a SmartCycler (Cepheid, Sunnyvale Calif.) as follows: Initial incubation of 40° C. for 10 minutes and 50° C. for 10 minutes and at 95° C. for 5 minutes (to activate Taq), followed by 45 cycles of 5 s denaturation at 95° C. and 20 s annealing/extension at 65° C. Cycle threshold (Ct) values were generated automatically by the SmartCycler software using 2nd derivative analysis of the emerging qPCR curves.
# S. aureus and E. coli cultures were grown to an OD600 of 1.0±0.2 (approximately 1×10^9 cfu/mL.) For each organism, 1 mL of culture was pelleted and washed three times in T.E. Bacterial suspensions were serially diluted in T.E., and 5 μL of each stock were added to bead lysis-reactions containing 50 μL of lysis-reaction buffer. […]
# [2] = molecular target: T1, DNA polymerase I (Escherichia coli, UniProt P00582); assay: DPE-PCR assay with purified DNA polymerase, ddCTP termination; assay type: biochemical; settings: dNTP mix with 50 μM ddCTP instead of 50 μM dCTP; 2×10^−9 U DNA polymerase I; 37° C., 20 minutes
# T1 construct: purchased New England Biolabs M0209
# Experimental: DNA Pol I (NEB cat #M0209L), Klenow (NEB cat #M0210S) and Klenow exo(−) (NEB cat #M0212S) were diluted to the indicated U/μL stock in Tris EDTA (T.E.) pH 8.0. To begin, 2 μL of DNA polymerase stock at each concentration were placed into a 50 μL polymerase assay mixture containing the following components: 50 μM dNTP, 20 mM Tris pH 8.0, 10 mM ammonium sulfate, 10 mM potassium chloride, 2 mM magnesium sulfate, 1% BSA, 0.1% Triton, 0.1% Tween, and 0.001 μM pre-annealed DNA substrate. Reactions were vortexed briefly and placed at 37° C. for 20 minutes. After 20 minutes, 3 μL of each reaction were immediately placed into a quantitative PCR (qPCR) reaction. Detection by qPCR
# The qPCR reaction master mix was prepared using the following components: LightCycler 480 Master Mix (Roche cat #04707494001), 333 nM of each primer, 166 nM Target probe (FAM), 166 nM internal control probe (TxRed), and 1.2 U of UDG (Bioline cat #BIO-20744). As a tool to monitor PCR inhibition, each qPCR reaction also included 40 copies of competitive internal control DNA. […]
# T1 sequence (P00582 whole entry): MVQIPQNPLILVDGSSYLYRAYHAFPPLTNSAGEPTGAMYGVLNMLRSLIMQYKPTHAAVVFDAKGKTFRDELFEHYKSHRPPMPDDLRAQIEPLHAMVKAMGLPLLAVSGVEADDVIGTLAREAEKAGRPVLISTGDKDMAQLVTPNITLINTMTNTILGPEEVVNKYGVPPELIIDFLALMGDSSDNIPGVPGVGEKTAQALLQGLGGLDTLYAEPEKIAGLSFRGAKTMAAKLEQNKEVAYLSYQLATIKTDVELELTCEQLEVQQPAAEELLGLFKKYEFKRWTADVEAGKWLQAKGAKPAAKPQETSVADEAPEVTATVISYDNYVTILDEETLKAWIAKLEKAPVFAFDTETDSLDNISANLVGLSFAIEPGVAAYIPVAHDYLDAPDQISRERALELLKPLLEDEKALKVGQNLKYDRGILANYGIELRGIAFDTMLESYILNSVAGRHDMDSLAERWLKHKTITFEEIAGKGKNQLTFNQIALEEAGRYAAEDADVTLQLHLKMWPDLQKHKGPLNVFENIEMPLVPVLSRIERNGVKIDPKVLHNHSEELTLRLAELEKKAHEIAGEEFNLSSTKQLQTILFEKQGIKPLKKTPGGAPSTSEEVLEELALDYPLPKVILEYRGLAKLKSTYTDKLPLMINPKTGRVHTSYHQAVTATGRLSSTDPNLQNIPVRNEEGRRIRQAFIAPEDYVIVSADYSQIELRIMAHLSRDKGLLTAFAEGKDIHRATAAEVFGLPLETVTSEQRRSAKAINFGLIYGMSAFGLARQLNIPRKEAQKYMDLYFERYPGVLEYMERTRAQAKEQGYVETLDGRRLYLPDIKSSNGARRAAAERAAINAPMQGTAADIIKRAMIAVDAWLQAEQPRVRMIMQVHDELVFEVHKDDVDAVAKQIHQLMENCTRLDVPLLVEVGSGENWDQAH
structure (smiles),measurement,setting,value
"Nc1ccn([C@H]2CC[C@@H](COP(=O)(O)OP(=O)(O)OP(=O)(O)O)O2)c(=O)n1 [ddCTP, dideoxyCTP]",DPE-PCR signal derived from E. coli cfu spikes,[1],blocked the generation of signal derived from E. coli cfu spikes
same,DPE-PCR assay signal (DNA polymerase extension activity),[2],eliminates signal generated by DNA polymerase I
